According to patent US20220031710A1, “USE OF ERK5 INHIBITORS FOR TREATING GLIOMAS IN PEDIATRIC SUBJECTS” (UNIVERSITY OF PITTSBURGH - OF THE COMMONWEALTH SYSTEM OF …, priority 2019, published 2022):

Experiments:
[1] = test system: DIPG-007, DIPG-IV, SF8628 and DIPG-13p cells; assay: Direct Trypan-Blue automated cell count of DIPG cells; assay type: cell-based, human
Procedure: (§1) Direct cell counts were performed using the Countess II FL Automated Cell Counter (ThermoFisher Scientific). Alamar blue viability (ThermoFisher Scientific) and the 5-bromo-2′-deoxyuridine (BrdU) incorporated cell proliferation assay (Cell Signaling Technology Cat #6813) were performed using the manufacturer's standard protocol. EC50 curve analysis was performed using raw fluorescent Alamar blue values that were inputted into PRISM 7.0. Drug concentrations were log 10 transformed and values normalized to percent viability with respect to vehicle treated cells. EC50 values were interpolated from a log inhibitor vs. normalized response with variable slope using a least square fit model.

[2] = test system: DIPG-13p cells xenograft; assay: DIPG-13p orthotopic xenograft model; assay type: in vivo, mice; conditions: 50 mg/kg, 2 cycles of 5 days on 2 days off; DIPG-13p xenograft
Procedure: Paraffin embedded blocks were cut in 5 μm sections. Slides were processed as follows: de-waxed in xylene followed by rehydration in a standard alcohol series. Antigen retrieval was by pressure cooking for 20 minutes in citrate buffer (pH 6.0), followed by blocking of endogenous peroxidase in 3% H2O2. The antibodies were added and incubated overnight at 4° C. Antibodies were detected using a secondary-HRP labeled mouse or rabbit antibody detection system (Dako EnVision+ System-HRP cat #k4401, cat #k4403) followed by addition 3,3′-Diaminobenzidine (DAB) chromagen (Vector Labs) for visualization. Sections were counter-stained with hematoxylin (Fisher Scientific Inc., Canada) and slides dehydrated in 70, 80, and 100% ethanol and xylene. Slides were cover slipped and mounted in Permount (Fisher Scientific Inc.). Antibodies and concentrations for IHC are as follows: Ki67 (1:100, Dako, cat #F7268). All images were captured on a Leica DM 100 microscope using Leica Application Suite Software (Switzerland, Version 3.8.0).
All animal procedures were carried out ethically according to animal user protocols approved by Institutional Animal Care Committee (IACUC). 4-6 week-old non-obese diabetic severe combined immune deficiency male or female mice (NOD-SCID-Prkdc^scid) were injected with 1×10^5 SU-DIPG-13p cells or 1×10^5 SF8628 DIPG cells. […]

[3] = test system: DIPG-007, DIPG-IV, SF8628 and DIPG-13p cells; assay: Annexin-PI flow cytometry apoptosis assay; assay type: cell-based, human; conditions: for populations in early apoptosis, late apoptosis and necrosis / viable cells (Annexin negative, PI negative): 48 h, vs DMSO vehicle
Procedure: Apoptosis was quantified using the Pacific Blue Annexin V Apoptosis Detection Kit with propidium iodide (BioLegend, San Diego, Calif. Cat #640926). Analysis was performed at the Flow Cytometry Core, Rangos Research Center, UPMC Children's Hospital of Pittsburgh.

[4] = test system: DIPG-IV cells; assay: EC50 of ERK5-IN-1 in DIPG-IV cells expressing ERK5-HA, ERK5-HA T733E or MYC S62D; assay type: cell-based, human
Procedure: Wildtype human H3F3A cDNA was ligated with a puromycin selection marker and a self-cleaving T2A sequence using Gibson Assembly Cloning and cloned into pLV with an EF1a promoter. HA-RASAL1 (NM_001193520.1) with an N-terminal HA tag, MYC (NM_002467.4), or MAPK7 (ERK5, NM_139033) were ligated with T2A mCherry and cloned into pLV under the control of the EF1a promoter. Cloning and plasmid sequence validation were performed by VectorBuilder Services (Santa Clara, Calif. 95050). Site-directed mutagenesis was performed to generate H3F3A K27M, H3F3A G34R, MYC S62D, and ERK5 mutant constructs using the QuikChange II Site-Directed Mutagenesis Kit and manufacturer's protocol (Agilent, Cat #200523, Santa Clara, Calif. 95051). Lentiviral ERK5 GIPZ shRNA plasmids were purchased from Dharmacon (Lafayette, Colo. 80026, Cat #RHS4531-EG5598 glycerol set: V2LHS 202701, V3LHS_366737, V3LHS_366738, V3LHS_366740, V3LHS_640828, V3LHS_640830).
Direct cell counts were performed using the Countess II FL Automated Cell Counter (ThermoFisher Scientific). Alamar blue viability (ThermoFisher Scientific) and the 5-bromo-2′-deoxyuridine (BrdU) incorporated cell proliferation assay (Cell Signaling Technology Cat #6813) were performed using the manufacturer's standard protocol. EC50 curve analysis was performed using raw fluorescent Alamar blue values that were inputted into PRISM 7.0. […]

[5] = test system: CNMC-XD-760; assay: Alamar blue viability EC50 in H3 wildtype DIPG cell line; assay type: cell-based, human; conditions: CNMC-XD-760 (DIPG histone wildtype H3) compared to H3 mutant DIPG cells and hemispheric pGBM cells; 96 h
Procedure: as §1

[6] = test system: DIPG-007, DIPG-IV, SF8628, and DIPG-13p cells; assay: Alamar blue viability EC50 dose response in H3K27M DIPG cells; assay type: cell-based; conditions: Homo sapiens, 96 h, SF8628, DIPG-13p cells, lowest of the ERK5 inhibitors tested
Procedure: Human Neural Stem Cells (H9 hESC-Derived) were purchased from Invitrogen and grown in DMEM/F12 containing penicillin/streptomycin/amphotericin B (1% vol/vol) supplemented with N2 (2% vol/vol; Invitrogen), EGF (20 ng/ml; Invitrogen), and FGF-2 (20 ng/ml; Invitrogen). DIPG cell lines (all with the H3K27M mutation) SU-DIPG-IV (DIPG-IV), SU-DIPG-13p (DIPG-13p), and HSJD-DIPG-007 (DIPG-007) were grown and passaged in DIPG medium as previously reported (Grasso et al., Nature medicine 2015; 21:555-9; Nagaraja et al., Cancer cell 2017; 31:635-52 e6; Vinci et al., Nature medicine 2018). SF8628 and immortalized NHAs were grown in DMEM (Invitrogen) supplemented with 10% FBS (Invitrogen). All cell lines were confirmed by STR profiling and tested mycoplasma negative by PCR. All tumor-derived cell lines used are described in Table 2.
as §1, with “EC50 values were interpolated from a log inhibitor vs. normalized response with variable slope using a least square fit model.” left out

CCOc1cc(C(=O)N2CCC(N3CCN(C)CC3)CC2)ccc1Nc1ncc2c(n1)N(C1CCCC1)c1ccccc1C(=O)N2C [ERK5-IN-1, 11-cyclopentyl-2-[[2-ethoxy-4-[[4-(4-methyl-1-piperazinyl)-1-piperidinyl]carbonyl]phenyl]amino]-5,11-dihydro-5-methyl-6H-pyrimido[4,5b][1,4]benzodiazepin-6-one]
cell number ([1]; 500 nM, 9 days of treatment, DIPG-007, DIPG-IV, SF8628 cells, vs vehicle): significant decreases in cell number | cell growth ([1]; DIPG-13p and SF8628 cells): diminished cell growth | median survival [2]: 30 days | populations in early apoptosis, late apoptosis and necrosis ([3]; DIPG-007 and DIPG-IV cells): increased | viable cells (Annexin negative, PI negative) ([3]; DIPG-007 and DIPG-IV cells): decreased | populations in early apoptosis, late apoptosis and necrosis ([3]; SF8628 and DIPG-13p cells): increased | viable cells (Annexin negative, PI negative) ([3]; SF8628 and DIPG-13p cells): decreased | rates of apoptosis ([3]; DIPG-007 and DIPG-IV cells, compared to controls): significantly higher rates of apoptosis | apoptosis ([3]; DIPG-13p and SF8628 cells): induction of apoptosis | resistance to ERK5-IN-1 (EC50 values) ([4]; DIPG-IV cells expressing MYC S62D vs empty vector control): promoted resistance | EC50 values ([4]; DIPG-IV cells expressing wild-type HA-tagged ERK5 or constitutively active ERK5 T733E vs empty vector): increased EC50 values | EC50 values for ERK5-IN-1 [5]: highest EC50 values | EC50 [6]: 500 to 1000 nM
